Patent US20100222396A1 (Novartis AG, priority 2009, published 2010)
pKd: −log10 of the molar value.

How the values were obtained:
[1] = biological target: T1, human orexin 1 receptor (hOx1R) (Homo sapiens, UniProt O43613); experiment: Calcium accumulation in cells (FLIPR), antagonism of orexin A, hOx1R; assay type: cell-based; details: for inhibition at 10 µM: measured at a concentration of 10 μM of compound (cells marked ^a); for pKd: cells expressing human orexin 1 receptor, IC50 vs orexin A converted by Cheng and Prusoff correction
T1 construct: expressed in transfected cells
T1 sequence (O43613 1-425): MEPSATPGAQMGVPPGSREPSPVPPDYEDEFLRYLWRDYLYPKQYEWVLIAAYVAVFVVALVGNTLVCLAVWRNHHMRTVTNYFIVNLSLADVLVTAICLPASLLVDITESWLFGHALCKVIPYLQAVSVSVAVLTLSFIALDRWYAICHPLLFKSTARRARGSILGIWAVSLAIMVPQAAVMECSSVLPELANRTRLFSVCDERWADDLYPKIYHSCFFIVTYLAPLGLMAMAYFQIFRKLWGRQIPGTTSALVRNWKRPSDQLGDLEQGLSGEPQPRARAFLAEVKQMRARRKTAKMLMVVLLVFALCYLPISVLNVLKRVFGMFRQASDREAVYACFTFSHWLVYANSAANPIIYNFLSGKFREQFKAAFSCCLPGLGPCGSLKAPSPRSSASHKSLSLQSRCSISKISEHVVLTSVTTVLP
Procedure: (§1) Cells expressing human orexin 1 or human orexin 2 receptors, were seeded at 8,000 cells/well in 384 well black-walled clear bottom, poly-D-lysine coated plates. After 24 h, the medium was removed and cells were washed once with phosphate buffered saline and serum-deprived overnight in assay buffer (130 mM NaCl, 5.4 mM KCl, 1.8 mM CaCl2, 0.8 mM MgSO4, 0.9 mM NaH2PO4, 25 mM glucose, 20 mM HEPES, pH 7.4) containing bovine serum albumin (1% w/v).
(§2) On the day of the experiment, the cells seeded in black plates were treated with assay buffer containing the Ca^2+ sensitive fluorescent dye Fluo-4-AM (2 μM), and probenecid (0.1 mM). After 1 h plates were washed twice with, and resuspended in, assay buffer containing probenecid (0.1 mM) using a multi plate washer. The plates were placed into a FLIPR II (Fluorometric Imaging Plate Reader, Molecular Devices, Sunnyvale, Calif., USA) and baseline fluorescence (fluorescence light units, FLU) was measured (5 measurements, 2 S each; laser excitation 488 nm at 0.6-1 W, CCD camera exposure 0.4 s) before addition of buffer alone (basal) or containing test compounds (either compound of formula I alone, agonist alone or agonist in the presence of various concentrations of compounds of formula I). Fluorescence measurements were then continued every 1 S for 120 S followed by every 4 S for 240 S.
(§3) The measurements were typically made in two sequences:
(§4) Compounds of formula I were tested usually in a concentration range from 10^−9 M to 10^−5 M.
(§5) In the second round, performed one hour later (to allow for equilibration), Orexin A was tested either in the absence (calibration curves, Orexin A agonist controls) or in the presence of compounds of formula I to determine antagonism.

[2] = biological target: T2, human orexin 2 receptor (hOx2R) (Homo sapiens, UniProt O43614); experiment: Calcium accumulation in cells (FLIPR), antagonism of orexin A, hOx2R; assay type: cell-based; details: for pKd: cells expressing human orexin 2 receptor, IC50 vs orexin A converted by Cheng and Prusoff correction
T2 construct: expressed in transfected cells
T2 sequence (O43614 1-444): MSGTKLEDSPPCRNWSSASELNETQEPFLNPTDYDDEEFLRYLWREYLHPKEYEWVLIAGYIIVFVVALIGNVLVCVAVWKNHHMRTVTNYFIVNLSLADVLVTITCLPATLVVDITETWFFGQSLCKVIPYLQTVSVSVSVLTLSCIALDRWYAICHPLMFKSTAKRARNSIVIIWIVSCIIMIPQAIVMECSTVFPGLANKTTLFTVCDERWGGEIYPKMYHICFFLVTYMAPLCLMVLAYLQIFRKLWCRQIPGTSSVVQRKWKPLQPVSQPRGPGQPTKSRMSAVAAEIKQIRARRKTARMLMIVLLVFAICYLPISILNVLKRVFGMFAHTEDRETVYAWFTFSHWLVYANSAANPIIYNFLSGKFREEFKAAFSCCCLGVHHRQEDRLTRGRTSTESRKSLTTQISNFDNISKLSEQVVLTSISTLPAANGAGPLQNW
Procedure: as §1, §2, §3, §4, §5

Structure (SMILES) | inhibition at 10 µM [1] [%] | pKd [2] | pKd [1] | inhibition at 10 µM ([2]; measured at a concentration of 10 μM of compound (cells marked ^a)) [%]
CN(C(=O)c1ccccc1)[C@H](CCNC(=O)c1cccnc1)Cc1ccccc1 [Example 86, N—[(S)-3-(Benzoyl-methyl-amino)-4-phenyl-butyl]-nicotinamide] | 4 | 5.82 |  | 
CN(C(=O)c1ccccc1)[C@H](CCNC(=O)c1cccn1C)Cc1ccccc1 [Example 91, 1-Methyl-1H-pyrrole-2-carboxylic acid [(S)-3-(benzoyl-methyl-amino)-4-phenyl-butyl]-amide] | 16 | 6.43 |  | 
CN(C(=O)c1ccccc1Br)[C@H](CCNC(=O)c1ccccn1)Cc1ccccc1 [Example 100, Pyridine-2-carboxylic acid {(8)-3-[(2-bromo-benzoyl)-methyl-amino]-4-phenyl-butyl}-amide] |  | 6.88 | 5.97 | 
CN(C(=O)c1ccccc1)[C@H](CCNC(=O)c1ccccn1)[C@@H](F)c1ccccc1 [Example 116, Pyridine-2-carboxylic acid [(3R,4S)-3-(benzoyl-methyl-amino)-4-fluoro-4-phenyl-butyl]-amide] |  |  | 5.81 | 29
CN(C(=O)c1ccccc1)[C@H](CCNC(=O)c1cc2ccccc2cn1)Cc1ccccc1 [Example 89, Isoquinoline-3-carboxylic acid [(S)-3-(benzoyl-methyl-amino)-4-phenyl-butyl]-amide] |  | 5.59 | 5.26 | 
CN(C(=O)c1ccccc1)[C@H](CCNC(=O)c1ccc2cccnc2c1)Cc1ccccc1 [Example 88, Quinoline-7-carboxylic acid [(S)-3-(benzoyl-methyl-amino)-4-phenyl-butyl]-amide] | 19 | 5.51 |  | 
CC(=O)NCC[C@H](Cc1ccccc1)N(C)C(=O)c1ccc2c(c1)OCO2 [Example 109, Benzo[1,3]-dioxole-5-carboxylic acid ((S)-3-acetylamino-1-benzyl-propyl)-methyl-amide] | 39 | 5.76 |  | 
COc1ccc(C(=O)N(C)[C@H](CCNC(=O)c2cccn2C)Cc2ccccc2)cc1OC [Example 120, 1-Methyl-1H-pyrrole-2-carboxylic acid {(8)-3-[(3,4-dimethoxy-benzoyl)-methyl-amino]-4-phenyl-butyl}-amide] |  | 8.40 | 6.74 | 
CN(C(=O)c1ccc2c(c1)OC(C)(C)O2)[C@H](CCNC(=O)c1ccccn1)Cc1ccccc1 [Example 101, Pyridine-2-carboxylic acid {(S)-3-[(2,2-dimethyl-benzo[1,3]dioxole-5-carbonyl)-methyl-amino]-4-phenyl-butyl}-amide] | 13 | 5.77 |  | 
CN(C(=O)c1ccccc1)[C@H](CCNC(=O)c1ccc2ccccc2n1)Cc1ccccc1 [Example 87, Quinoline-2-carboxylic acid [(S)-3-(benzoyl-methyl-amino)-4-phenyl-butyl]-amide] |  | 5.89 | 5.35 | 
CN(C(=O)c1ccc2ccn(C)c2c1)[C@H](CCNC(=O)c1ccccn1)Cc1ccccc1 [Example 85, 1-Methyl-1H-indole-6-carboxylic acid {(S)-1-benzyl-3-[(pyridine-2-carbonyl)-amino]-propyl}-methyl-amide] |  | 6.40 | 6.63 | 
CN(C(=O)c1ccccc1)[C@@H](Cc1ccccc1)[C@H](O)CNC(=O)c1ccccn1 [Example 69, Pyridine-2-carboxylic acid [(2R,3S)-3-(benzoyl-methyl-amino)-2-hydroxy-4-phenyl-butyl]-amide] |  | 5.78 | 5.45 | 
COc1ccc(C(=O)N(C)[C@H](CCNC(=O)c2nc3ccccc3n2C)Cc2ccccc2)cc1 [Example 90, 1-Methyl-1H-benzoimidazole-2-carboxylic acid {(S)-3-[(4-methoxy-benzoyl)-methyl-amino]-4-phenyl-butyl}-amide] |  | 5.60 | 5.90 | 
CN(C(=O)c1ccc2c(c1)OCO2)[C@H](CCNC(=O)c1nc2ccccc2o1)Cc1ccccc1 [Example 108, Benzooxazole-2-carboxylic acid {(S)-3-[(benzo[1,3]dioxole-5-carbonyl)-methyl-amino]-4-phenyl-butyl}-amide] |  | 6.27 | 5.40 | 
